“Also recorded” adds a separate entry of the source. Where two headings read alike, the source gives them in different places.
Assays:
AChE [1] = biological target: T1, AChE (Rattus norvegicus, UniProt P37136); assay: In vivo AChE inhibition in plasma after i.v. administration; set-up: species or system Fischer-344 rats; details: iv, 1 mg/kg i.v.
T1 construct: Samples of plasma were removed to measure untreated levels of AChE activity; from tissue; host or cells: plasma of Fischer-344 rats
T1 sequence (P37136 32-614): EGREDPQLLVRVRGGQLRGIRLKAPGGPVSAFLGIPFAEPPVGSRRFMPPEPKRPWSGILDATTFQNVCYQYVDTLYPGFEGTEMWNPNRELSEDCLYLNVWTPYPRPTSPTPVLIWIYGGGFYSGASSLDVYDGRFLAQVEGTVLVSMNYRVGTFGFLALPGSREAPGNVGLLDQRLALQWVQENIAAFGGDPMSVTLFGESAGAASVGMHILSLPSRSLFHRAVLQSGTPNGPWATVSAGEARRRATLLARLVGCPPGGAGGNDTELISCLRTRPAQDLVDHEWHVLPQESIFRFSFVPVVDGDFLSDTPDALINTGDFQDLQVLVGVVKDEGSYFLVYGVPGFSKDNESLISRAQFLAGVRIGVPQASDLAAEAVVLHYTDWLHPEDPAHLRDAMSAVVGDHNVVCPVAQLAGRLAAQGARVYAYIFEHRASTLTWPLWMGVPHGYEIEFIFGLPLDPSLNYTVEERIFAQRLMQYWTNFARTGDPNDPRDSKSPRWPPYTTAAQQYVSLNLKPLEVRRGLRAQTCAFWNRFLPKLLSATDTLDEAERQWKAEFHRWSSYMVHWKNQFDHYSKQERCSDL
Description: In this experiment, three-month-old male Fischer-344 rats were anesthetized with halothane. PE 50 catheters, filled with heparinized isotonic saline, were tied into their right femoral artery and vein. Animals then were restrained with a plaster cast that enabled them to move their head and forequarters only and were allowed to recover from anesthesia in a temperature-controlled enclosure. Samples of plasma were removed to measure untreated levels of AChE activity. At 90 minutes after surgery, hexamethonium bromide (5 mg/kg) was administered intraperitoneally, followed by subcutaneous injection of atropine methyl bromide (4 mg/kg) 10 minutes later. […] Both were formulated in a manner consistent for intravenous bolus injection. Plasma samples were removed and immediately frozen at −70° C., just prior to intravenous administration of the inhibitors and at times between 2 minutes and 8 hours.

[2] = i.p. administration to rodents, cholinergic over-stimulation symptoms
Excerpt: This is a classical central (i.e., brain) cholinergic over-stimulation (overdrive) effect.

β-APP [3] = assay: CSF levels of β-APP in naive and forebrain-lesioned rats; format: in vivo, rat; details: for CSF levels of β-APP: vs untreated controls, FIG. 6
Description: Lesions were induced with […] N-methyl-D-aspartic acid (50 nMol) (64-68).

β-APP [4] = assay: β-APP levels in neuroblastoma cell culture (Western blot, mAb 22C11); format: cell-based, human; details: for β-APP levels, intracellular and extracellular: SK-N-SH cells, 5 or 50 μM, up to 16 hours, vs control, no cellular toxicity (LDH), FIG. 4/5; for intracellular β-APP level: donepezil treatment, FIG. 2
Description: Acad. Sci. USA 98 (13):7605-7610. The methodology of Shaw et al. for carrying out these tests is summarized as follows:
(§1) SK—N—SH neuroblastoma cells were cultured on 60 mm dishes at a concentration of 3×10^6 cells, and SH—SY-5Y neuroblastoma cells were plated in 100 mm dishes at a concentration of 3×10^5 cells. The cells were allowed to grow in complete media (10% FBS, 2 mM glutamine in DMEM) for 3 to 4 days until they reached 70% confluence.
Lysate preparation: At each time point, the spent medium was collected and stored at −70 C for later analysis of secretory β-APP levels. Cell lysates were prepared as reported previously (Lahiri et al. (1997) Effects of Cholinesterase Inhibitors on the Secretion of Beta-Amyloid Precursor Protein in Cell Cultures, Ann. N.Y Acad. Sci. 826:416-421; and Lahiri et al. (1998) The Secretion of Amyloid Beta-Peptides is Inhibited in the Tacrine-Treated Human Neuroblastoma Cells, Mol. Brain Res. 62:131-140). Protein levels of the supernatant were analyzed by the Bradford protein assay (BioRad, Mellville, N.Y.).
Western Blot: Fifteen μg of protein from each sample was loaded onto a 10% NuPAGE Bis-Tris gel in 1× NuPAGE MOPS SDS running buffer (NOVEX, San Diego, Calif.) and the proteins separated at 200 V for 45 minutes. The gels were then transferred onto nitrocellulose at 25 V for 1.5 hours. Non-specific binding was blocked, and each blot was probed for 2 hours with either 22C11 anti-β-APP N-terminal antibody (2.5 μg/mL, Boehringer Mannheim, Indianapolis, Ind.) or anti-activated ERK antibody (25 ng/mL, Promega, Madison, Wis.). Anti-mouse IgG- or anti-rabbit IgG, conjugated to horse radish peroxidase, were used as secondary antibodies. Equivalent loading of samples was determined by Ponceau S staining (Sigma, St. Louis, Mo.). Densimetric quantification of the chemiluminescence of blots was undertaken by using a […] and NIH-IMAGE (version 4.1).

Aβ [5] = assay: Preclinical studies, Aβ levels in nerve cells; format: cell-based, rat; details: for reduction of Aβ levels in nerve cells: versus controls
Aβ [6] = assay: Aβ levels in neuroblastoma cell culture (ELISA); format: cell-based, human; details: for secreted levels of Aβ: SK-N-SH cells, 5 or 50 μM, up to 16 hours, vs control, no cellular toxicity (LDH), FIG. 4/5
Description: as §1
Total Aβ Assay: Total Aβ peptide levels in SH—SY-5Y and SK—N—SH cultured samples were assayed by a sensitive ELISA assay (Suzuki et al., (1994) An Increased Percentage of Long Amyloid Beta Protein Secreted by Familial Amyloid Beta Protein Precursor (beta APP717) Mutants, Science 264:1336-1340). For total Aβ peptide measurements, a sandwich immunoassay with rabbit polyclonal antibody to residues 1-40 of Aβ or a monoclonal antibody to residues 17-25 of Aβ as a capture antibody for all species of Aβ peptide, Aβ1-40 and Aβ1-42, was used, and the values were expressed as the mean of six independent assays.

β-APP [7] = assay: Preclinical studies, β-APP levels; format: cell-based, rat; details: versus controls
AChE [8] = biological target: T2, AChE (Homo sapiens, UniProt P22303); assay: biochemical; details: IC50 Value AChE, Brain
T2 construct: other: Brain
T2 sequence (P22303 whole entry): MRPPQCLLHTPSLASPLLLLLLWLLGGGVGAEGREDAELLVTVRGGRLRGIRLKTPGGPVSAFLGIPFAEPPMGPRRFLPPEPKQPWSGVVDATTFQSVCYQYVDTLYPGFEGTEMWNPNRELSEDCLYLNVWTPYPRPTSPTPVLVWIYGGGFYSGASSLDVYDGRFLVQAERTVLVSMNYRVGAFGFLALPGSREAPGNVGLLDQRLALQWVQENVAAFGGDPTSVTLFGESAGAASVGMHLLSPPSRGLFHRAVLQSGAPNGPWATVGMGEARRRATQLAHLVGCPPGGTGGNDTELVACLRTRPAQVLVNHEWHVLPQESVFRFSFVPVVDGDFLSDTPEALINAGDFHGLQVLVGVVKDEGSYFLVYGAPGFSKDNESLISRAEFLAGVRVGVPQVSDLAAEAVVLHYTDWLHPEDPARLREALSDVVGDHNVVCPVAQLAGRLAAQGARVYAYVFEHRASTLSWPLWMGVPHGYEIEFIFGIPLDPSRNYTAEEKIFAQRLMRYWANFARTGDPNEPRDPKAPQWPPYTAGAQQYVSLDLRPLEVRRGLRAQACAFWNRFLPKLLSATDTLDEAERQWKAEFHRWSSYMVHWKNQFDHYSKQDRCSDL
Excerpt: (§2) For example, the pharmacological activity of each compound may be expressed as the IC50, which is defined as the concentration (e.g., in nanomoles) required to inhibit 50% of the enzyme activity of ACHE or produce a 50% reduction in β-APP or Aβ. The AChE inhibition IC50 values may be determined by measuring the enzyme activity at each concentration and expressed as a percentage of the activity determined in the absence of each compound. This then is transformed into a logit format, where logit=In (% activity/[100−% activity]), and was plotted as a finction of the log concentration of the compound (Id.). IC50 values (i.e., logit=In (50/[100−50 =0) were determined only from correlation coefficients (r^2) of […] and when more than 50% inhibition was achieved from duplicate samples.

BChE = biological target: T3, BChE (Homo sapiens, UniProt P06276); assay: BChE inhibition IC50 (RBC/plasma and brain); format: biochemical
T3 construct: (−)-Phenserine (RBC/plasma); from tissue; host or cells: plasma (RBC/plasma rows); brain (Brain rows)
T3 sequence (P06276 29-602, species assumed): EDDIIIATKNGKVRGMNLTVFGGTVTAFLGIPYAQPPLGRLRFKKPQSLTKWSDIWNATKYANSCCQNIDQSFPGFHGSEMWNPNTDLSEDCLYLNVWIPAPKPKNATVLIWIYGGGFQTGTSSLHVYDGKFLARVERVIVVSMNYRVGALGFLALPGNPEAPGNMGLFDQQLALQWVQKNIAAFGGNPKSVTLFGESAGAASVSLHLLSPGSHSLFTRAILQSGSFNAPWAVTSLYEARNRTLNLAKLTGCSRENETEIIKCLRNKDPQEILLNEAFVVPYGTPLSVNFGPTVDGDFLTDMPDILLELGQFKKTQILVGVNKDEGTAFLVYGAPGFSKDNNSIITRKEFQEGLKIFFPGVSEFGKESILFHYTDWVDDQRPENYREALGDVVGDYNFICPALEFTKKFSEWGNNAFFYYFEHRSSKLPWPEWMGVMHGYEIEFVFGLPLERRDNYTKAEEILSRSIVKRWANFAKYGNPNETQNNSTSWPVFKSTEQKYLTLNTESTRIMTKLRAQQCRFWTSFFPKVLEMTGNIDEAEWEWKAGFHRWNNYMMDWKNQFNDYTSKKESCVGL

β-APP [9] = assay: β-APP levels in adult rats after three weeks of daily administration; format: in vivo, rat; details: daily for three weeks, metrifonate 80 mg/kg, tacrine 3 mg/kg, data not shown
Description: The levels of β-APP were measured by 22C11 (epitope APP 66-81).

[10] = biological target: T4, acetylcholinesterase (AChE) (Homo sapiens, UniProt P22303); details: compared with the negative enantiomer; Pei, Greig et al. (1995); cited from earlier work
T4 construct: host or cells: human erythrocytes
T4 sequence (P22303 32-617 isoform P22303-2 limits assumed): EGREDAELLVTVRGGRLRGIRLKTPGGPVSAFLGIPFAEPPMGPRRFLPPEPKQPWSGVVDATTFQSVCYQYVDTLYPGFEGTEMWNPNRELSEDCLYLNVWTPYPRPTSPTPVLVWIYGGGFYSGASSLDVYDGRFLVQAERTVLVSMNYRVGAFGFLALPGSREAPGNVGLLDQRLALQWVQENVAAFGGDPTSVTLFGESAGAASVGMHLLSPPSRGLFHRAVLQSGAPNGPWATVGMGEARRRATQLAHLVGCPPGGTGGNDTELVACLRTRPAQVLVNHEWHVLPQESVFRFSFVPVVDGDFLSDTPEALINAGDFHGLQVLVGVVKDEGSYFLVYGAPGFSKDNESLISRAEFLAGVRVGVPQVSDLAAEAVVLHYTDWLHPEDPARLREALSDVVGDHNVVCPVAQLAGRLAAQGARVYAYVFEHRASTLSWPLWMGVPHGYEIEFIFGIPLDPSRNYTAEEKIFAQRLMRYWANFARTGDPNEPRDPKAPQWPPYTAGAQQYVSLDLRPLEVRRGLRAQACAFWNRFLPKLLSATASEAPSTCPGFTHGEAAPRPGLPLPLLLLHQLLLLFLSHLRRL

[11] = biological target: T4, acetylcholinesterase (AChE); assay: IC50 for AChE inhibition, phenserine enantiomers; format: biochemical
Excerpt: as §2

[12] = Randomized, double-blind, placebo-controlled 12-week study in mild to moderate Alzheimer's disease; format: in vivo, human; details: oral, 12 weeks
β-APP [13] = assay: β-APP production on coadministration of (+)-phenserine with an AChEI (Example III); format: cell-based
Excerpt: The compounds may be tested by the procedure utilized in Example II.

[14] = extracellular β-APP levels, read-out: IC50 for β-APP secretion
[15] = intracellular β-APP levels, read-out: IC50 for intracellular β-APP
[16] = human neuroblastoma cells, 2 μM, 10 μM and 50 μM (text: 50 μM), FIG. 3

CN1CC[C@@]2(C)c3cc(OC(=O)Nc4ccccc4)ccc3N(C)C12 (single isomer, unassigned; (-)) [(−)-phenserine]
inhibition at 1 mg/kg (AChE [1]; at 5 minutes, read-out: maximum AChE inhibition): 73.5%
inhibition at 1 mg/kg (AChE [1]; at 8 hours, read-out: AChE inhibition): 43%
duration of fine tremor ([2]; 5 mg/kg i.p.): about 1 hour
observed symptoms ([2]; 5 mg/kg i.p.): a fine tremor was observed
observed symptoms ([2]; 7.5 mg/kg i.p.): Tremor, together with symptoms of peripheral over-stimulation (specifically, lacrimation and salivation)
observed symptoms ([2]; 20 mg/kg i.p.): incapacitated by severe tremor and peripheral side effects
animals killed when moribund ([2]; 20 mg/kg i.p., of 5 treated animals): 2
extracellular β-APP in the CSF, dose dependence of the decrease (β-APP [3]; adult rats, up to very high doses): reaches a plateau that is not further decreased even at very high doses
CSF levels of β-APP (β-APP [3]; naive rats, 2.5 mg/kg, 2.5 mg/kg): lowered β-APP levels; also recorded: reduce β-APP levels
CSF levels of β-APP (β-APP [3]; rats with cholinergic forebrain (nucleus basalis of Meynert) lesions): lowered β-APP levels
β-APP levels, intracellular and extracellular (β-APP [4]): significantly lowered; also recorded: reduces β-APP and Aβ levels in a concentration-dependent manner; also recorded: decreased the β-APP levels
IC50 (β-APP [4]; [14]): ~670 nM
IC50 (β-APP [4]; intracellular β-APP levels, read-out: IC50 for inhibition of β-APP, intracellular): ~1100 nM
IC50 (β-APP [4]; [15]): ~1100 nM
reduction of Aβ levels in nerve cells (Aβ [5]; after 8 hours): 14%
reduction of Aβ levels in nerve cells (Aβ [5]; after 16 hours): 31%
secreted levels of Aβ (Aβ [6]): significantly lowered; also recorded: reduces β-APP and Aβ levels in a concentration-dependent manner; also recorded: substantially reduced from that of the controls especially at 16 hours
levels of β-APP (β-APP [7]): similarly reduced
IC50 (AChE [8]): 36 ± 3 nM
IC50 (BChE; Brain): 2500 ± 1100 nM
IC50 (BChE; RBC/plasma): 1560 ± 270 nM

COP(=O)(OC)C(O)C(Cl)(Cl)Cl (centres unmarked) [Metrifonate]
secreted β-APP levels (β-APP [9]): did not alter

CN1CC[C@]2(C)c3cc(OC(=O)Nc4ccccc4)ccc3N(C)C12 (single isomer, unassigned; (+)) [(+)-phenserine]
activity as an inhibitor of human acetylcholinesterase [10]: far less active
observed symptoms ([2]; 20 mg/kg i.p.): entirely without symptoms
β-APP levels, intracellular and extracellular (β-APP [4]): significantly lowered
β-APP levels, intracellular and extracellular (β-APP [4]; listed as (+)-Phenserine): capable of reducing the β-APP and Aβ protein levels
IC50 (β-APP [4]; [14]): ~670 nM
IC50 (β-APP [4]; [15]): ~1100 nM
Aβ levels (Aβ [5]; combined with (−)-phenserine): further reduced
IC50 [11]: > 25000 nM
efficacy test level (NPI, CGIC, ADAS-cog, MMSE, CANTAB, ADCS-ADL) vs First Level ([12]; 50 mg bid with 5 mg bid (−)-phenserine): maintain a level at least as great as the First Level
efficacy test level (NPI, CGIC, ADAS-cog, MMSE, CANTAB, ADCS-ADL) vs First Level ([12]; 50 mg bid with 6-12 mg per day rivastigmine): maintain a level at least as great as the First Level
secreted levels of Aβ (Aβ [6]): significantly lowered
secreted levels of Aβ (Aβ [6]; listed as (+)-Phenserine): capable of reducing the β-APP and Aβ protein levels
production of β-APP (β-APP [13]; coadministered with donepezil): reduce the production of β-APP
production of β-APP (β-APP [13]; coadministered with eptastigmine): reduce the production of β-APP
production of β-APP (β-APP [13]; coadministered with galantamine): reduce the production of β-APP
production of β-APP (β-APP [13]; coadministered with huperzine A): reduce the production of β-APP
production of β-APP (β-APP [13]; coadministered with rivastigmine): reduce the production of β-APP

COc1cc2c(cc1OC)C(=O)C(CC1CCN(Cc3ccccc3)CC1)C2 (centres unmarked) [donepezil, reference compound]
intracellular β-APP level (β-APP [4]): decreased intracellular levels
intracellular β-APP level (β-APP [4]; listed as Donepezil): reduces intracellular β-APP

CCN(C)C(=O)Oc1cccc([C@H](C)N(C)C)c1 [rivastigmine, reference compound]
secreted β-APP (β-APP [4]; [16]): elevated secretion of β-APP; also recorded: elevates the levels of secreted β-APP
Aβ peptide levels (Aβ [6]; [16]): No statistically significant change; also recorded: without a statistically significant change

Nc1c2c(nc3ccccc13)CCCC2 [Tacrine]
secreted β-APP levels (β-APP [9]): did not alter
